Values of other authors in patent US6685969B2, “Treatment for ectoparasites” (Schering-Plough HealthCare Products, Inc., priority 2001, dated 2004).

Tested on: Head Lice
Settings: comparison of published results

For `CC1(C)C(C=C(Cl)Cl)C1C(=O)OCc1cccc(Oc2ccccc2)c1` (stereo not shown) [Permethrin], the “Evidence of efficacy among topical pesticidal treatments” value is given as “sufficient evidence of efficacy”.
